The values that follow come from patent US9606123B2, “Compositions and methods for diagnosing and monitoring ovarian cancer progression and treatment” (University of Virginia Patent Foundation, priority 2013, dated 2017).

Structures are written as SMILES. Entries after “also recorded” stand apart in the source; their conditions may differ.

Data set [1] concerns VCAM-1 expression in mesothelial cells (LP9). As to the kind of experiment: Western analysis of VCAM-1 expression in mesothelial cells (LP9) treated with carboplatin. Conditions: LP9 human mesothelial cells; up to 1 μg/ml carboplatin for 24 hours. Type of data set: cell-based.
For data set [2] the following is noted: cited from earlier work.
For another data set, the system named is A2780Cis cells. As to the kind of experiment: Tumor burden in A2780Cis-tumored mice treated with carboplatin. Type of data set: in vivo, Athymic nude mice. The note with it: mice with platinum-resistant A2780Cis tumors, 25 mg/kg carboplatin weekly IP. The procedure:
(§1) FIG. 3. Carboplatin indirectly regulates mesothelial VCAM-1 expression by affecting tumor burden. Athymic nude mice were given an intraperitoneal (IP) injection of A2780 (n=3 per time point) or A2780Cis (n=3 per time point) cells or saline (control, n=2). One week following tumor initiation a group of mice was imaged to obtain baseline values; the remaining mice were treated with 25 mg/kg carboplatin weekly. (A) SPECT/CT images were collected weekly starting 1 week after tumor initiation (week 0); weeks 0, 1 and 2 indicate that time after carboplatin treatment. […] Heart and omentum were removed from each cohort of mice weekly post-carboplatin treatment (x-axis, 0=1 week tumor, no treatment) and the percent injected dose of radioactivity per gram of tissue determined as described above (see FIG. 2). n=3 for each cohort, C=control animals. […]
(§2) To assess VCAM-1 as a marker of chemosensitivity, two cohorts of mice were injected with an isogenic paired cell line with one being resistant and the other sensitive to platinum: The first cohort (n=9) was injected with A2780, platinum sensitive cell line and the second (n=9) with A2780Cis platinum resistant cell line. […] After each timepoint, n=3 animals from each cohort were sacrificed and VCAM-In^111 uptake quantified via biodistribution as described above.

For the next data set, the system named is A2780 cells. In words: Tumor burden in mice bearing platinum-sensitive cells treated with carboplatin. Type of data set: in vivo, Athymic nude mice. The note with it: 25 mg/kg carboplatin weekly IP. Here is the method: as §1, §2

Regarding `N.N.O=C([O-])C1(C(=O)[O-])CCC1.[Pt+2]` [carboplatin, cis-Diamine(1,1-cyclobutanedicarboxylato)platinum(II)], the “Change in VCAM-1 expression (Western)” value in data set [1] is “no change”. Also, the Solubility in water in data set [2] is on record as 25 mM. In addition, in the data set on A2780Cis cells, the “Tumor growth / tumor burden under carboplatin” value was “neither was altered; also recorded: continued to grow”. Also, in the data set with A2780 cells, the “Tumor burden following carboplatin treatment” value is on record as “decreases”.
